# Where two headings read alike, the source gives them in different places. Numbered stars: 1 amine (or outer) side, 2 acyl side, 3 side chain; on linkers, the order of the positions; unused ones are H or OH. Bridge positions count the residues as written; N and C are the ends. Square brackets hold non-standard residues; d marks the D form. Peptide text beside a SMILES is read from it. Trp(7-Me) = Cc1cccc2c(C[C@H](N)C(=O)O)c[nH]c12; Abu(4-yl) = O=C([C@H](CC[*:3])N[*:1])[*:2]; 2Nal = N[C@@H](Cc1ccc2ccccc2c1)C(=O)O; d2Nal = N[C@H](Cc1ccc2ccccc2c1)C(=O)O; AEF = NCCOc1ccc(C[C@H](N)C(=O)O)cc1; Cit = NC(=O)NCCC[C@H](N)C(=O)O; Pen = CC(C)(S)[C@H](N)C(=O)O; αMeK = C[C@](N)(CCCCN)C(=O)O; Aib = CC(C)(N)C(=O)O
# Assays:
# [1] = target: T1, IL-23R (Homo sapiens, UniProt Q5VWK5); assay: DB cells IL23R pSTAT3 cell assay (pStat3 HTRF); assay type: cell-based
# T1 sequence (Q5VWK5 24-629): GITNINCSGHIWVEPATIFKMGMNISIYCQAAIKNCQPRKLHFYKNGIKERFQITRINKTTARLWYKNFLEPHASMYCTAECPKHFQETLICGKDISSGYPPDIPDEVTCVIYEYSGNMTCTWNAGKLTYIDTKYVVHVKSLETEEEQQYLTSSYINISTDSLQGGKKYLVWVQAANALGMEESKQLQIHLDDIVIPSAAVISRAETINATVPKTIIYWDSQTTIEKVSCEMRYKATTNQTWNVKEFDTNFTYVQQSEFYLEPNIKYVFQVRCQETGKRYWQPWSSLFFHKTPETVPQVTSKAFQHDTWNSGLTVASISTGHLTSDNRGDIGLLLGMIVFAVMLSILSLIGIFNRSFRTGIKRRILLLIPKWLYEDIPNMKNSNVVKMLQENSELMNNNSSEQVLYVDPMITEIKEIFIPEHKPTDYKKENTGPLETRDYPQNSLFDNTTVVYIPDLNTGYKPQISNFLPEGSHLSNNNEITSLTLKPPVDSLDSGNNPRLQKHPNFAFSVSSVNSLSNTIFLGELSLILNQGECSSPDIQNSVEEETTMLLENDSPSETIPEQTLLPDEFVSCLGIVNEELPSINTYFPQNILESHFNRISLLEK
# Outline: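 DB cells (5×10E5/well, RPMI-1640 + 10% FBS) stimulated with 0.5 nM final IL-23 plus serially diluted test peptides for 30 min at 37 °C, 5% CO2. Phospho-STAT3 (Tyr705) in lysates measured by HTRF using a two-plate protocol.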
# [2] = in vitro; settings: human, 20% fecal homogenate (supernatant), anaerobic, pH 6.8
# [3] = in vitro; settings: cynomolgus monkey, 20% fecal homogenate (supernatant), anaerobic, pH 6.8
# [4] = in vitro; settings: both, SD, rat, plasma (EDTA)
# [5] = Table E3, DB cells, IL-23 0.5 nM, 30 minutes at 37° C., read-out: pStat3 HTRF (IC50)
SMILES,"IC50 [1, 5] [µM]",half-life at 20 μM [2] [h],half-life at 20 μM [3] [h],half-life at 20 μM [4] [h],IC50 [1] [µM]
CC(=O)NCCCC[C@H](NC(=O)[C@](C)(CC(C)C)NC(=O)[C@H](Cc1ccc2ccccc2c1)NC(=O)[C@H](Cc1ccc(OCCN)cc1)NC(=O)[C@H]1NC(=O)[C@H](CCC(N)=O)NC(=O)[C@H](Cc2c[nH]c3c(C)cccc23)NC(=O)[C@H]([C@@H](C)O)NC(=O)[C@H](CC(N)=O)NC(=O)[C@@H](NC(C)=O)C(C)(C)SSC1(C)C)C(=O)N[C@H](CO)C(=O)NCCC(N)=O [compound 222],0.001 to 0.01,> 24,> 24,–,–
CC(=O)NCCCC[C@H](NC(=O)C1(NC(=O)[C@H](Cc2ccc3ccccc3c2)NC(=O)[C@H](Cc2ccc(OCCN)cc2)NC(=O)[C@H]2NC(=O)[C@H](CCC(N)=O)NC(=O)[C@H](Cc3c[nH]c4c(C)cccc34)NC(=O)[C@H]([C@@H](C)O)NC(=O)[C@H](CC(N)=O)NC(=O)[C@@H](NC(C)=O)C(C)(C)SSC2(C)C)CCC1)C(=O)N[C@@H](CC(N)=O)C(=O)NCCC(N)=O [compound 277],< 0.001,–,5,6,–
CC(=O)NCCCC[C@@H]1NC(=O)[C@H](Cc2c[nH]c3c(C)cccc23)NC(=O)[C@H]([C@@H](C)O)NC(=O)[C@H](CCC(N)=O)NC(=O)[C@@H](NC(=O)[C@@H](CCCNC(=N)N)NC(C)=O)CCSC[C@@H](C(=O)N[C@@H](Cc2ccc(OCCN)cc2)C(=O)N[C@@H](Cc2ccc3ccccc3c2)C(=O)N[C@@](C)(CCCCN)C(=O)N[C@@H](CCCCNC(C)=O)C(=O)N[C@@H](CC(N)=O)C(N)=O)NC1=O [compound 326] (Ac-[dR][Abu(4-yl)]QT[Trp(7-Me)]K(Ac)C[AEF][2Nal][αMeK]K(Ac)N-NH2; thioether 2-7),0.01 to 0.1,11,11,–,–
COc1cccc2[nH]cc(C[C@@H]3NC(=O)[C@H]([C@@H](C)O)NC(=O)[C@H](CC(N)=O)NC(=O)[C@@H](NC(C)=O)C(C)(C)SSC(C)(C)[C@@H](C(=O)N[C@@H](Cc4ccc(OCCN)cc4)C(=O)N[C@@H](Cc4ccc5ccccc5c4)C(=O)N[C@@](C)(CCCCN)C(=O)N[C@@H](CCCCNC(C)=O)C(=O)N[C@@H](CC(N)=O)C(=O)NCCC(N)=O)NC(=O)[C@H](CCC(N)=O)NC3=O)c12 [compound 229],0.01 to 0.1,> 24,7,–,–
CC(=O)NCCCC[C@H](NC(=O)[C@](C)(CCCCN)NC(=O)[C@H](Cc1ccc2ccccc2c1)NC(=O)[C@H](Cc1ccc(OCCN)cc1)NC(=O)[C@H]1NC(=O)[C@H](CCC(N)=O)NC(=O)[C@H](Cc2c[nH]c3cc(C)ccc23)NC(=O)[C@H]([C@@H](C)O)NC(=O)[C@H](CC(N)=O)NC(=O)[C@@H](NC(C)=O)C(C)(C)SSC1(C)C)C(=O)N[C@@H](CC(N)=O)C(=O)NCCC(N)=O [compound 230],0.01 to 0.1,> 24,10,–,–
CC(=O)N[C@H](CCCNC(=N)N)C(=O)N[C@H]1CCSC[C@@H](C(=O)N[C@@H](Cc2ccc(OCCN)cc2)C(=O)N[C@@H](Cc2ccc3ccccc3c2)C(=O)NC2(C(=O)N[C@@H](CCC(=O)O)C(=O)N[C@@H](CC(N)=O)C(=O)N[C@@H](CC(N)=O)C(N)=O)CCOCC2)NC(=O)[C@H](CCC(N)=O)NC(=O)[C@H](Cc2c[nH]c3c(C)cccc23)NC(=O)[C@H]([C@@H](C)O)NC(=O)[C@H](CCC(N)=O)NC1=O [compound 27],–,–,3,–,< 0.001
CC(=O)NCCCC[C@H](NC(=O)[C@](C)(CC(C)C)NC(=O)[C@H](Cc1ccc2ccccc2c1)NC(=O)[C@H](Cc1ccc(OCCN)cc1)NC(=O)[C@H]1NC(=O)[C@H](CCC(N)=O)NC(=O)[C@H](Cc2c[nH]c3c(C)cccc23)NC(=O)[C@H]([C@@H](C)O)NC(=O)[C@H](CC(N)=O)NC(=O)[C@@H](NC(C)=O)C(C)(C)SSC1(C)C)C(=O)N1CCC[C@@H]1C(=O)NCCC(N)=O [compound 212],0.01 to 0.1,> 24,> 24,–,–
CC(=O)NCCCC[C@H](NC(=O)[C@](C)(CCCCN)NC(=O)[C@H](Cc1ccc2ccccc2c1)NC(=O)[C@H](Cc1ccc(OCCN)cc1)NC(=O)[C@H]1NC(=O)[C@H](CCCNC(N)=O)NC(=O)[C@H](Cc2c[nH]c3c(C)cccc23)NC(=O)[C@H]([C@@H](C)O)NC(=O)[C@H](CC(N)=O)NC(=O)[C@@H](NC(C)=O)C(C)(C)SSC1(C)C)C(=O)N[C@@H](CC(N)=O)C(=O)NC(C)(C)C(=O)N[C@H](CCCCN)C(N)=O [compound 344] (Ac-[Pen]NT[Trp(7-Me)][Cit][Pen][AEF][2Nal][αMeK]K(Ac)N[Aib][dK]-NH2; disulfide 1-6),< 0.001,–,–,–,–
CC(=O)NCCCC[C@H](NC(=O)C1(NC(=O)[C@H](Cc2ccc3ccccc3c2)NC(=O)[C@H](Cc2ccc(OCCN)cc2)NC(=O)[C@@H]2CSCC[C@H](NC(C)=O)C(=O)N[C@@H](CCC(N)=O)C(=O)N[C@@H]([C@@H](C)O)C(=O)N[C@@H](Cc3c[nH]c4c(C)cccc34)C(=O)N[C@@H](CCC(N)=O)C(=O)N2)CCOCC1)C(=O)N[C@@H](CC(N)=O)C(=O)N[C@@H](CC(N)=O)C(N)=O [compound 30],–,–,–,–,0.001 to 0.01
CC(=O)NCCCC[C@H](NC(=O)[C@](C)(CC(C)C)NC(=O)[C@H](Cc1c[nH]c2ccc(O)cc12)NC(=O)[C@H](Cc1ccc(OCCN)cc1)NC(=O)[C@H]1NC(=O)[C@H](CCC(N)=O)NC(=O)[C@H](Cc2c[nH]c3ccccc23)NC(=O)[C@H]([C@@H](C)O)NC(=O)[C@H](CC(N)=O)NC(=O)[C@@H](NC(C)=O)C(C)(C)SSC1(C)C)C(=O)N[C@@H](CC(N)=O)C(=O)N[C@@H](CC(N)=O)C(N)=O [compound 21],–,–,–,–,> 0.1
CC(=O)NCCCC[C@H](NC(=O)[C@](C)(CC(C)C)NC(=O)[C@H](Cc1c[nH]c2ccc(Br)cc12)NC(=O)[C@H](Cc1ccc(OCCN)cc1)NC(=O)[C@H]1NC(=O)[C@H](CCC(N)=O)NC(=O)[C@H](Cc2c[nH]c3ccccc23)NC(=O)[C@H]([C@@H](C)O)NC(=O)[C@H](CC(N)=O)NC(=O)[C@@H](NC(C)=O)C(C)(C)SSC1(C)C)C(=O)N[C@@H](CC(N)=O)C(=O)N[C@@H](CC(N)=O)C(N)=O [compound 22],–,–,–,–,0.001 to 0.01
CC(=O)NCCCC[C@H](NC(=O)[C@](C)(CC(C)C)NC(=O)[C@H](Cc1c[nH]c2c(C)cccc12)NC(=O)[C@H](Cc1ccc(OCCN)cc1)NC(=O)[C@H]1NC(=O)[C@H](CCC(N)=O)NC(=O)[C@H](Cc2c[nH]c3ccccc23)NC(=O)[C@H]([C@@H](C)O)NC(=O)[C@H](CC(N)=O)NC(=O)[C@@H](NC(C)=O)C(C)(C)SSC1(C)C)C(=O)N[C@@H](CC(N)=O)C(=O)N[C@@H](CC(N)=O)C(N)=O [compound 17],–,–,–,–,0.01 to 0.1
CC(=O)NCCCC[C@H](NC(=O)[C@](C)(CCCCN)NC(=O)[C@H](Cc1ccc2ccccc2c1)NC(=O)[C@H](Cc1ccc(OCCN)cc1)NC(=O)[C@H]1NC(=O)[C@H](CCCNC(N)=O)NC(=O)[C@H](Cc2c[nH]c3c(C)cccc23)NC(=O)[C@H]([C@@H](C)O)NC(=O)[C@H](CC(N)=O)NC(=O)[C@@H](NC(C)=O)C(C)(C)SSC1(C)C)C(=O)N[C@@H](CC(N)=O)C(=O)NC(C)(C)C(=O)N[C@H](Cc1ccc2ccccc2c1)C(N)=O [compound 348] (Ac-[Pen]NT[Trp(7-Me)][Cit][Pen][AEF][2Nal][αMeK]K(Ac)N[Aib][d2Nal]-NH2; disulfide 1-6),0.001 to 0.01,–,–,–,–
COc1cccc2[nH]cc(C[C@H](NC(=O)[C@H](Cc3ccc(OCCN)cc3)NC(=O)[C@H]3NC(=O)[C@H](CCC(N)=O)NC(=O)[C@H](Cc4c[nH]c5ccccc45)NC(=O)[C@H]([C@@H](C)O)NC(=O)[C@H](CC(N)=O)NC(=O)[C@@H](NC(C)=O)C(C)(C)SSC3(C)C)C(=O)N[C@@](C)(CC(C)C)C(=O)N[C@@H](CCCCNC(C)=O)C(=O)N[C@@H](CC(N)=O)C(=O)N[C@@H](CC(N)=O)C(N)=O)c12 [compound 15],–,–,–,–,> 0.1
CC(=O)NCCCC[C@H](NC(=O)[C@](C)(CCCCN)NC(=O)[C@H](Cc1ccc2ccccc2c1)NC(=O)[C@H](Cc1ccc(OCCN)cc1)NC(=O)[C@H]1NC(=O)[C@H](CCC(N)=O)NC(=O)[C@H](Cc2c[nH]c3ccc(C#N)cc23)NC(=O)[C@H]([C@@H](C)O)NC(=O)[C@H](CC(N)=O)NC(=O)[C@@H](NC(C)=O)C(C)(C)SSC1(C)C)C(=O)N[C@@H](CC(N)=O)C(=O)N[C@H](CCCCN)C(N)=O [compound 296],0.001 to 0.01,–,–,–,–
CC(=O)NCCCC[C@H](NC(=O)[C@](C)(CCCCN)NC(=O)[C@H](Cc1ccc2ccccc2c1)NC(=O)[C@H](Cc1ccc(OCCN)cc1)NC(=O)[C@H]1NC(=O)[C@H](CCC(N)=O)NC(=O)[C@H](Cc2c[nH]c3cccc(C)c23)NC(=O)[C@H]([C@@H](C)O)NC(=O)[C@H](CC(N)=O)NC(=O)[C@@H](NC(C)=O)C(C)(C)SSC1(C)C)C(=O)N[C@@H](CC(N)=O)C(=O)NCCC(N)=O [compound 231],0.001 to 0.01,> 24,15,–,–
